In ChEMBL document CHEMBL3045054, “Synthesis and insecticidal activity of novel 1-alkyl-3-sulfonyloxypyrazole-4-carboxamide derivatives” (2010) one finds mortality data, which are given here for 31 molecules.

Holding throughout (format): functional
For assay [1], the system named is Tetranychus urticae. Nature of the assay: Insecticidal activity against Tetranychus urticae (two-spotted spider mite) eggs in compound treated kidney bean leaf disk assessed as ovicidal at 62.5 ppm measured after 7 days. The settings on record: foliar, 168 h.
The test system of assay [2] is Tetranychus urticae. Nature of the assay: Insecticidal activity against Tetranychus urticae (two-spotted spider mite) in compound treated kidney bean leaf disk assessed as mortality at 62.5 ppm measured after 7 days. The settings on record: foliar, 168 h.
For assay [3], the system named is Nephotettix cincticeps. Nature of the assay: Insecticidal activity against Nephotettix cincticeps (green rice leafhopper) third instar larvae in compound treated rice seedlings assessed as mortality at 62.5 ppm measured after 7 days. The settings on record: 168 h.
Assay [4] relates to Tetranychus urticae. Nature of the assay: Insecticidal activity against Tetranychus urticae (two-spotted spider mite) eggs in compound treated kidney bean leaf disk assessed as ovicidal at 3.1 ppm measured after 7 days. The settings on record: foliar, 168 h.
The test system of assay [5] is Tetranychus urticae. Nature of the assay: Insecticidal activity against Tetranychus urticae (two-spotted spider mite) in compound treated kidney bean leaf disk assessed as mortality at 3.1 ppm measured after 7 days. The following applies: foliar, 168 h.
The test system of assay [6] is Nephotettix cincticeps. Description: Insecticidal activity against Nephotettix cincticeps (green rice leafhopper) third instar larvae in compound treated rice seedlings assessed as mortality at 3.1 ppm measured after 7 days. The following applies: 168 h.
The subject of assay [7] is Nephotettix cincticeps. Description: Insecticidal activity against Nephotettix cincticeps (green rice leafhopper) third instar larvae in compound treated rice seedlings assessed as mortality at 1.3 ppm measured after 7 days. The settings on record: 168 h.
For assay [8], the system named is Tetranychus urticae. Nature of the assay: Insecticidal activity against Tetranychus urticae (two-spotted spider mite) eggs in compound treated kidney bean leaf disk assessed as ovicidal at 500 ppm measured after 7 days. The following applies: foliar, 168 h.
In assay [9] the test system is Tetranychus urticae. Nature of the assay: Insecticidal activity against Tetranychus urticae (two-spotted spider mite) in compound treated kidney bean leaf disk assessed as mortality at 500 ppm measured after 7 days. The following applies: foliar, 168 h.
Assay [10] has as its system Nephotettix cincticeps. Description: Insecticidal activity against Nephotettix cincticeps (green rice leafhopper) third instar larvae in compound treated rice seedlings assessed as mortality at 500 ppm measured after 7 days. The following applies: 168 h.
For assay [11], the system named is Tetranychus urticae. Nature of the assay: Insecticidal activity against Tetranychus urticae (two-spotted spider mite) eggs in compound treated kidney bean leaf disk assessed as ovicidal at 1.3 ppm measured after 7 days. The following applies: foliar, 168 h.
Assay [12] deals with Tetranychus urticae. Nature of the assay: Insecticidal activity against Tetranychus urticae (two-spotted spider mite) in compound treated kidney bean leaf disk assessed as mortality at 1.3 ppm measured after 7 days. The settings on record: foliar, 168 h.

In the case of `Cn1cc(C(=O)NCC(F)(F)F)c(OS(C)(=O)=O)n1`, the mortality at 62.5 ppm was 61% in the assay on Tetranychus urticae [1], 86% with Tetranychus urticae [2] and 22% in the assay on Nephotettix cincticeps [3].
Turning to `CCCC(C#N)(CC)NC(=O)c1cn(C)nc1OS(C)(=O)=O` (stereo not given), the mortality at 62.5 ppm was determined as 39% with Tetranychus urticae [1], 15% in the assay on Tetranychus urticae [2] and 22% in the assay with Nephotettix cincticeps [3].
On to `Cn1cc(C(=O)NC2(C#N)CCCCC2)c(OS(C)(=O)=O)n1`, for which the mortality at 62.5 ppm was 20% in the assay on Tetranychus urticae [1], 93% in the assay on Tetranychus urticae [2] and 50% with Nephotettix cincticeps [3].
On to `CCC(C#N)(CC)NC(=O)c1cn(C)nc1OS(C)(=O)=O`, for which the mortality at 3.1 ppm in the assay on Tetranychus urticae [4] was found to be 100%; in the assay on Tetranychus urticae [5], 100%; in the assay on Nephotettix cincticeps [6] it was 55%. The mortality at 62.5 ppm in the assay with Tetranychus urticae [1], with Tetranychus urticae [2] and in the assay on Nephotettix cincticeps [3] was 100% in each case.
With `CC(C)C(C)(C#N)NC(=O)c1cn(C)nc1OS(C)(=O)=O` (stereo not given), the mortality at 3.1 ppm in the assay with Tetranychus urticae [4] is 26%; in the assay on Tetranychus urticae [5] it was 11%; in the assay with Nephotettix cincticeps [6] it was 32%. Also, the mortality at 62.5 ppm in the assay on Tetranychus urticae [1], in the assay with Tetranychus urticae [2] and in the assay on Nephotettix cincticeps [3] was 100% in each case.
On to `CCC(C)(C#N)NC(=O)c1cn(C)nc1OS(C)(=O)=O` (stereo not given), for which the mortality at 3.1 ppm in the assay on Tetranychus urticae [4] is 9%; in the assay on Tetranychus urticae [5] it was 15%; in the assay on Nephotettix cincticeps [6] it was 88%. Also, the mortality at 62.5 ppm in the assay with Tetranychus urticae [1], with Tetranychus urticae [2] and in the assay on Nephotettix cincticeps [3] was 100% in each case.
On to `CCCC(C)(C#N)NC(=O)c1cn(C)nc1OS(C)(=O)=O` (stereo not given), for which the mortality at 3.1 ppm in the assay with Tetranychus urticae [4] was found to be 3%; with Tetranychus urticae [5] it was 8%; with Nephotettix cincticeps [6], 81%. Besides, the values for the mortality at 62.5 ppm with Tetranychus urticae [1], in the assay on Tetranychus urticae [2] and in the assay on Nephotettix cincticeps [3] were 67%, 64% and 100%, respectively.
Take `CCC(C#N)NC(=O)c1cn(C)nc1OS(C)(=O)=O` (stereo not given): the mortality at 3.1 ppm with Tetranychus urticae [4] came out at 3%; with Tetranychus urticae [5], 7%; in the assay with Nephotettix cincticeps [6] it was 10%. Also, the mortality at 62.5 ppm in the assay with Tetranychus urticae [1] turned out to be 94%; in the assay on Tetranychus urticae [2] it was 100%; with Nephotettix cincticeps [3], 100%.
For `Cn1cc(C(=O)NCC#N)c(OS(C)(=O)=O)n1`, the mortality at 3.1 ppm in the assay on Tetranychus urticae [4] and with Tetranychus urticae [5] was 8% throughout. Also, the mortality at 62.5 ppm in the assay with Tetranychus urticae [1] came out at 100%; in the assay with Tetranychus urticae [2], 100%; in the assay with Nephotettix cincticeps [3] it was 47%.
In the case of `CC(NC(=O)c1cn(C)nc1OS(C)(=O)=O)c1ccccc1` (stereo not given), the mortality at 62.5 ppm in the assay with Tetranychus urticae [1] was 0%; with Tetranychus urticae [2] it was 0%; with Nephotettix cincticeps [3] it was 81%.
Take `CCCCCC(C)NC(=O)c1cn(C)nc1OS(C)(=O)=O` (stereo not given): the mortality at 62.5 ppm in the assay on Tetranychus urticae [1] is 6%; with Tetranychus urticae [2], 29%; with Nephotettix cincticeps [3] it was 94%. For the same molecule, in the assay on Nephotettix cincticeps [6], the mortality at 3.1 ppm amounted to 8%.
Take `CCC(CC)NC(=O)c1cn(C)nc1OS(C)(=O)=O`: the mortality at 62.5 ppm in the assay with Tetranychus urticae [1] came to 19%; in the assay on Tetranychus urticae [2] it was 100%; in the assay with Nephotettix cincticeps [3], 100%. The mortality at 3.1 ppm was found to be 10% in the assay with Tetranychus urticae [5] and 65% in the assay on Nephotettix cincticeps [6].
On to `Cn1cc(C(=O)NC(C)(C)C)c(OS(C)(=O)=O)n1`, for which the mortality at 62.5 ppm amounted to 3% in the assay on Tetranychus urticae [1], 23% with Tetranychus urticae [2] and 100% in the assay on Nephotettix cincticeps [3]. For the same molecule, the mortality at 3.1 ppm in the assay with Nephotettix cincticeps [6] was 80%.
As to `CCCC(C)NC(=O)c1cn(C)nc1OS(C)(=O)=O` (stereo not given), the mortality at 3.1 ppm with Tetranychus urticae [4] is 6%; with Tetranychus urticae [5], 7%; in the assay on Nephotettix cincticeps [6] it was 95%. For the same molecule, the mortality at 62.5 ppm with Tetranychus urticae [1] stood at 44%; in the assay with Tetranychus urticae [2] it was 94%; with Nephotettix cincticeps [3], 100%.
On to `CC(C)CNC(=O)c1cn(C)nc1OS(C)(=O)=O`, for which the mortality at 62.5 ppm turned out to be 12% in the assay with Tetranychus urticae [1], 89% in the assay on Tetranychus urticae [2] and 100% with Nephotettix cincticeps [3]. In the assay on Nephotettix cincticeps [7], the mortality at 1.3 ppm is 97%. Besides, the mortality at 3.1 ppm in the assay with Nephotettix cincticeps [6] was determined as 100%.
As for `Cn1cc(C(=O)NC2CC2)c(OS(C)(=O)=O)n1`, the mortality at 62.5 ppm in the assay with Tetranychus urticae [1] is 9%; in the assay on Tetranychus urticae [2], 21%; in the assay on Nephotettix cincticeps [3], 97%. The mortality at 3.1 ppm in the assay on Nephotettix cincticeps [6] was 10%.
As to `CC(C)N(C)C(=O)c1cn(C)nc1OS(C)(=O)=O`, the mortality at 62.5 ppm was determined as 5% in the assay with Tetranychus urticae [1], 10% with Tetranychus urticae [2] and 41% with Nephotettix cincticeps [3].
On to `CCNC(=O)c1cn(C)nc1OS(C)(=O)=O`, for which the mortality at 62.5 ppm in the assay on Tetranychus urticae [1], in the assay with Tetranychus urticae [2] and in the assay on Nephotettix cincticeps [3] was 0% throughout.
With `CCCNC(=O)c1cn(C)nc1OS(C)(=O)=O`, the mortality at 62.5 ppm in the assay on Tetranychus urticae [1] worked out at 7%; with Tetranychus urticae [2], 25%; in the assay with Nephotettix cincticeps [3], 87%.
Turning to `CNC(=O)c1cn(C)nc1OS(C)(=O)=O`, the figures for the mortality at 62.5 ppm with Tetranychus urticae [1], in the assay on Tetranychus urticae [2] and with Nephotettix cincticeps [3] were 4%, 19% and 20%, respectively.
As to `CC(C)NC(=O)c1cn(C)nc1OS(=O)(=O)N(C)C`, the mortality at 62.5 ppm in the assay on Tetranychus urticae [1], in the assay on Tetranychus urticae [2] and with Nephotettix cincticeps [3] was 0% each time.
`CC(C)NC(=O)c1cn(C)nc1OS(=O)(=O)C(F)(F)F`: the results for the mortality at 62.5 ppm with Tetranychus urticae [1], in the assay with Tetranychus urticae [2] and with Nephotettix cincticeps [3] were 10%, 15% and 24%, respectively.
Regarding `CC(C)NC(=O)c1cn(C)nc1OS(=O)(=O)CCl`, the mortality at 62.5 ppm with Tetranychus urticae [1] stood at 13%; with Tetranychus urticae [2], 15%; in the assay on Nephotettix cincticeps [3], 100%. The mortality at 3.1 ppm in the assay on Nephotettix cincticeps [6] is 10%.
Regarding `CCS(=O)(=O)Oc1nn(C)cc1C(=O)NC(C)C`, the mortality at 62.5 ppm with Tetranychus urticae [1] worked out at 2%; in the assay with Tetranychus urticae [2] it was 14%; with Nephotettix cincticeps [3], 100%. Also, the mortality at 3.1 ppm in the assay on Nephotettix cincticeps [6] came out at 55%.
Regarding `CCS(=O)(=O)Oc1nn(C(C)(C)C)cc1C(=O)NC(C)C`, the mortality at 500 ppm was 0% in the assay on Tetranychus urticae [8], 50% with Tetranychus urticae [9] and 0% with Nephotettix cincticeps [10].
For `CC(C)NC(=O)c1cn(C(C)C)nc1OS(C)(=O)=O`, the mortality at 62.5 ppm came out at 47% in the assay on Tetranychus urticae [1], 50% in the assay with Tetranychus urticae [2] and 100% in the assay on Nephotettix cincticeps [3]. The mortality at 3.1 ppm with Nephotettix cincticeps [6] was 74%.
On to `CCCn1cc(C(=O)NC(C)C)c(OS(C)(=O)=O)n1`, for which the mortality at 62.5 ppm in the assay on Tetranychus urticae [1] came out at 26%; in the assay with Tetranychus urticae [2] it was 36%; in the assay on Nephotettix cincticeps [3], 100%. Also, the mortality at 3.1 ppm with Nephotettix cincticeps [6] turned out to be 76%.
As to `CCn1cc(C(=O)NC(C)C)c(OS(C)(=O)=O)n1`, the mortality at 62.5 ppm in the assay with Tetranychus urticae [1] came out at 13%; in the assay on Tetranychus urticae [2], 51%; in the assay on Nephotettix cincticeps [3], 100%. The mortality at 3.1 ppm in the assay with Nephotettix cincticeps [6] was 100%.
In the case of `CC(C)NC(=O)c1cn(CCCl)nc1OS(C)(=O)=O`, the mortality at 3.1 ppm in the assay with Tetranychus urticae [4] is 30%; in the assay on Tetranychus urticae [5] it was 15%; in the assay with Nephotettix cincticeps [6], 96%. Further, the values for the mortality at 62.5 ppm in the assay on Tetranychus urticae [1], in the assay on Tetranychus urticae [2] and in the assay on Nephotettix cincticeps [3] were 34%, 80% and 100%, respectively.
In the case of `CC(C)NC(=O)c1cn(CCF)nc1OS(C)(=O)=O`, the mortality at 62.5 ppm in the assay with Tetranychus urticae [1] worked out at 69%; in the assay on Tetranychus urticae [2], 50%; in the assay on Nephotettix cincticeps [3], 100%. Also, in the assay on Nephotettix cincticeps [6], the mortality at 3.1 ppm is 43%.
On to `CC(C)NC(=O)c1cn(C)nc1OS(C)(=O)=O`, for which the values for the mortality at 1.3 ppm in the assay on Tetranychus urticae [11], in the assay on Tetranychus urticae [12] and in the assay with Nephotettix cincticeps [7] were 22%, 16% and 74%, respectively. The mortality at 3.1 ppm in the assay on Tetranychus urticae [4] came to 23%; in the assay with Tetranychus urticae [5], 17%; in the assay on Nephotettix cincticeps [6], 100%. In addition, the values for the mortality at 62.5 ppm in the assay on Tetranychus urticae [1], in the assay with Tetranychus urticae [2] and in the assay on Nephotettix cincticeps [3] were 37%, 100% and 100%, respectively.
